# Where “and” joins values, the source holds several entries; their conditions need not be identical. Equal values may be shown once. Read-outs that look alike come from different tables or passages of the source.
# How the values were obtained:
# [1] = tested on: IL-2; assay: IL-2 activity (CTLD proliferation) of Con A supernatants of spleen cells from mice injected IP (Example 3); format: in vivo, Balb-c mice
# Protocol: A solution of the compound of Example 1 was prepared as follows: 5 mg was placed in a volumetric flask to which was added 100 ml of a solution of 40% dimethyl sulfoxide (DMSO) and 60% phosphate buffer saline (PBS) solution resulting in a concentration of 10 μg/0.2 ml. If the solution becomes turbid, it is centrifuged at 2000 rpm for ten minutes and the clear supernatant portion is used.
# The test animals were Balb-c, male, mice, 6 to 8 weeks of age. All injections were made intraperitoneally using 0.2 ml of the solution of the compound of Example 1 using 25 gauge 5/8" hypodermic needle.
# The animals received the following injections:
# Each of groups a, b, c and d consisted of 21 animals. The animals were sacrificed daily from 24 h to 7 days after injection.
# On each day, spleen cells from three of the animals from each control group were pooled together and processed by passing the spleen cells through a 60 mesh stainless steel net in a 5 mm Petri dish containing PBS in order to separate the cells. The cells were collected and centrifuged at 1000 rpm for 10 minutes. The supernatant was discarded and the cells were treated for two minutes with 5 ml of hypotonic buffer (0.15M NH4 Cl, 0.01M KHCO3 dissolved in double distilled water, pH 7.2) to kill the erythrocytes. Thereafter, PBS was added to the cells and the cells were centrifuged for 10 minutes at 1000 rpm. The cells were washed twice with PBS and counted in a haemocytometer using trypan blue to test for viability. The cells were brought to a concentration of 10^7 cells/ml using enriched RPMI containing 10% fetal calf serum (Ser Lab, Sussex, England); 5×10^-5 M 2-mercaptoethanol and 3% of d-glutamine (Bio Lab Israel) (stock solution 2m M×1000 nonessential amino acids) (Bio Lab, Israel) (stock solution×100) and sodium pyruvate (Bio Lab, Israel) (stock solution 1m M×100).
# An additional three animals from each of the experimental groups were sacrificed and each of the spleens was processed separately using the same procedure.
# The cell mixture was divided into two groups.
# (a) Cells at a concentration of 10^7 cells/ml enriched RPMI to which was added concanavalin-A (CON A) (DiFCO, Batch 352) 2 μg./ml. These cells were incubated in 5 mm Petri dishes (NUNC) for 24 hours at 37° C., 7.5% CO2. Supernatants were collected, centrifuged at 1,600 rpm for 10 minutes and stored at 4° C. until used. These supernatants were assayed for IL-2 and CSF activity.
# Prior to incubation of the cells, samples were removed from culture plates and smears of the cultures were made by cytocentrifugation. Slides were stained with May-Grunwald-Giemsa (1:10) solution and evaluated morphologically. A radioactive thymidine assay was used to determine IL-2 activity.
# 1. Supernatants were tested for IL-2 activity by the proliferation of the IL-2 dependent cell line CTLD. The IL-2 assay is based on the growth dependence of these cultured T-cell lines on IL-2. T cells harvested from IL-2 dependent culture, washed and placed back in culture in the absence of IL-2 invariably die within 24 hr. By using tritiated thymidine incorporation (^3 H-TdR) as an index of cultured T-cell replication, the IL-2 microassay provides a highly reproducible and quantitive indication of the amount of IL-2 activity in the supernatant prepared hereinabove.
# 2. To assay a condition medium for IL-2 activity, a sample containing 5×10^4 CTLD cells, 10% fetal calf serum and 50% of supernatant in question, all were suspended in a final volume of 1 ml RPMI. Aliquots of 0.2 ml from each sample were placed in four replicate wells of 96 microwell tissue culture plates (NUNC). Conditioned medium was obtained from cultures of Charles River rat spleen cells stimulated with Con A that contained a known amount of IL-2 as a reference in all assays.
# 3. The microwells were incubated for 24 hr at 37 degrees C. after which 1 microcurie/well of ^3 H-methylthymidine was added. […]
# [2] = Dissolution in aqueous vehicles; format: physicochemical; conditions: organic solvent or mixture, read-out: solubility (will dissolve)
# Source text: The invention also contemplates a method for dissolving the compounds of the invention in an aqueous vehicle. This method comprises the use of ultrasound or mechanical agitation for an extended period of time which will dissolve the compound. Generally ultrasound is produced by a transformer which transforms 50/60 hertz, line voltage AC into high frequency electrical energy which is coupled to a transducer. By using piezoelectric ceramics, electrical frequency is converted into mechanical vibration. Typical amplitudes of 0.0003 for 40 k Hz equipment and 0.00007 to 0.001 for 20 k Hz equipment are useful. The transducer may be provided with a booster that is connected to a horn that has means for conducting the ultrasound to a container that holds the liquid for dissolving the compounds of the invention. Useful devices include small scale ultrasonic cleaners such as the Bronson instrument. […] The time required for this is usually 3 hours to 24 hours. High speed mechanical shakers such as a Tutenhauer shaker or waring blenders may be used for this purpose. The use of an electically operated agitator will cause the compounds to form a solution or dispersion after about 3 to 4 hours of agitation.
# Using stirring 5.0 mg of the compound of Example 1 is dissolved under sterile conditions in 20 ml of glycerol. Thereafter 80 ml of PBS is added to form a solution containing 10 μg/0.2 ml.
# It has been determined that the compound of Example 1 will dissolve as follows: […]
compound,measurement,setting,value
Cl[TeH]1(Cl)(Cl)OCCO1 [Example 1],IL-2 activity,"[1]; 1 μg IP, day 1, individual mouse","25,919 CPM and 34,326 CPM and 16,718 CPM"
same,IL-2 activity,"[1]; 1 μg IP, day 2, individual mouse","21,398 CPM and 22,050 CPM and 9,338 CPM"
same,IL-2 activity,"[1]; 1 μg IP, day 3, individual mouse","10,130 CPM and 13,235 CPM and 2,176 CPM"
same,IL-2 activity,"[1]; 1 μg IP, day 4, individual mouse","31,999 CPM and 14,226 CPM and 17,228 CPM"
same,IL-2 activity,"[1]; 1 μg IP, day 6, individual mouse","41,261 CPM and 80,314 CPM and 42,485 CPM"
same,IL-2 activity,"[1]; 1 μg IP, day 7, individual mouse","66,854 CPM and 58,094 CPM and 51,268 CPM"
same,IL-2 activity,"[1]; 10 μg IP, day 1, individual mouse","24,335 CPM and 21,193 CPM and 25,381 CPM"
same,IL-2 activity,"[1]; 10 μg IP, day 2, individual mouse","31,901 CPM and 36,390 CPM and 22,066 CPM"
same,IL-2 activity,"[1]; 10 μg IP, day 3, individual mouse","20,316 CPM and 18,288 CPM and 12,126 CPM"
same,IL-2 activity,"[1]; 10 μg IP, day 4, individual mouse","26,644 CPM and 18,051 CPM and 65,963 CPM"
same,IL-2 activity,"[1]; 10 μg IP, day 6, individual mouse","22,040 CPM and 74,043 CPM and 43,838 CPM"
same,IL-2 activity,"[1]; 10 μg IP, day 7, individual mouse","85,216 CPM and 6,299 CPM"
same,solubility,[2]; 10% glycerol/90% pbs,1000 µg/mL
same,solubility,[2]; 20% glycerol/80% pbs,1300 µg/mL
same,solubility,[2]; 40% glycerol/60% pbs,6000 µg/mL
